# Laboratory results as given in patent US10463658B2, “Method of inhibiting FLT3 kinase” (AROG Pharmaceuticals, LLC, priority 2013, dated 2019).
# Positions count from the first letter of the chain named.
# Legend:
# FLT3 D835H = molecular target: T1, FLT3 D835H (Homo sapiens, UniProt P36888, D835H); test: KINOMEscan KdElect competitive binding assay, FLT3 D835H; details: tosylate salt
# T1 construct: host or cells: E. coli BL21-derived host (T7 phage) or HEK-293
# T1 sequence (P36888 610-943 D835H limits assumed): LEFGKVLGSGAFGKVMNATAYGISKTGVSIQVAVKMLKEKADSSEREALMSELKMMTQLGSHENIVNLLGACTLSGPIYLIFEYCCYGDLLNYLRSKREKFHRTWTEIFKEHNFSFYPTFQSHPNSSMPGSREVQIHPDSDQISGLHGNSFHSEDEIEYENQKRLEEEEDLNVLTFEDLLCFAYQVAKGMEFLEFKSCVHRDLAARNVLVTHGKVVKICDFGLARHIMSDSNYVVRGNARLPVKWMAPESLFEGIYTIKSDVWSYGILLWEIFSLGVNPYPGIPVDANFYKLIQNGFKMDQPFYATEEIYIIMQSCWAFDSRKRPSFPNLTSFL
# Text: (§1) Competitive binding assay.
# (§2) The lysates were then centrifuged and filtered.
# FLT3 K663Q = molecular target: T2, FLT3 K663Q (Homo sapiens, UniProt P36888, K663Q); test: KINOMEscan KdElect competitive binding assay, FLT3 K663Q; details: tosylate salt; read-out: Binding Constant (Kd), FLT3 K663Q
# T2 construct: host or cells: E. coli BL21-derived host (T7 phage) or HEK-293
# T2 sequence (P36888 610-943 K663Q limits assumed): T1 sequence (P36888 610-943 D835H limits assumed) with K54Q, H226D
# Text: as §1, §2
# FLT3 TKD mutation D835Y = molecular target: T3, FLT3 TKD mutation D835Y (Homo sapiens, UniProt P36888, D835Y); test: Direct enzyme phosphorylation assay (Millipore Kinase IC50 Profiler), FLT3 D835Y; type: biochemical; details: tosylate salt; n=2; read-out: IC50 against the FLT3 TKD mutation D835Y
# T3 construct: purchased Millipore
# T3 sequence (P36888 27-993 D835Y): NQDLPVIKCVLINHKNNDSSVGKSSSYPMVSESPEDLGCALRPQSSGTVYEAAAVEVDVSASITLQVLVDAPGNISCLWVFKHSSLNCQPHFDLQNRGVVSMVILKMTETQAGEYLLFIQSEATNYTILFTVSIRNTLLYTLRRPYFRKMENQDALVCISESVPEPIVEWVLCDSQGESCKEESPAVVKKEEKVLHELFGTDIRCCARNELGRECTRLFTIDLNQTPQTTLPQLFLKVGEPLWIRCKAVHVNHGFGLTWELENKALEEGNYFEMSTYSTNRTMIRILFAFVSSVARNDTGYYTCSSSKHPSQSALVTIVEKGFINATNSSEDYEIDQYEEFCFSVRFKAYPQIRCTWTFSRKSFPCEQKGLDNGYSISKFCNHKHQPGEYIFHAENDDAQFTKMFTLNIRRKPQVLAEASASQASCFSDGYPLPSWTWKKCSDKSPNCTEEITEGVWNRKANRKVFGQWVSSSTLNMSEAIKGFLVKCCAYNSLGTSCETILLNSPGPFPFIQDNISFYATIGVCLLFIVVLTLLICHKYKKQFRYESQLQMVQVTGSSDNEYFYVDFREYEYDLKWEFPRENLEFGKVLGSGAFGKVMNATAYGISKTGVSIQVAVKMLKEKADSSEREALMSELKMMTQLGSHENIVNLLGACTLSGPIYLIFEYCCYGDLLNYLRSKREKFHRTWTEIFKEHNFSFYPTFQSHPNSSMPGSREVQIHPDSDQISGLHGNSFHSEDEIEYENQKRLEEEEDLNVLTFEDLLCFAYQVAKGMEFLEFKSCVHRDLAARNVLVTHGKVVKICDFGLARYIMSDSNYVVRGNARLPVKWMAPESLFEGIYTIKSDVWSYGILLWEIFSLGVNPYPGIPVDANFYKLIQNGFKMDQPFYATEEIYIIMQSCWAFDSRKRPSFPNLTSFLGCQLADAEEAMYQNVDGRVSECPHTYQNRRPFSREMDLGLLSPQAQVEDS
# Method: Direct enzyme phosphorylation assay. The Millipore Kinase IC50 Profiler assay was used to screen the present invention against a panel of normal FLT3 and mutated FLT3 kinases. For assays of both kinases, the FLT3 enzyme was incubated with 8 mM of 3-(N-morpholino)propanesulfonic acid (MOPS) at a pH of 7.0, 0.2 mM Ethylenediaminetetraacetic acid (EDTA), 50 uM, a synthetic Abl peptide substrate […] (SEQ ID NO: 1), 10 mM MgAcetate and [γ-^33P-ATP]. The reaction was initiated by the addition of MgATp mix. The reaction mixture was incubated for 40 minutes at room temperature and halted by the addition of 3% phosphoric acid solution. 10 uL of the reaction solution was spotted on P30 filtermat and washed three times in 75 mM phosphoric acid for 5 minutes and then once in methanol prior to drying and scintillation counting. The scintillation values for each replicate, including positive and negative controls, were analyzed using XLFit version 5.1 to determine the IC50 values for the present invention against normal and mutated FLT3.
compound,measurement,setting,value
"COCCOc1ccc2c(c1)ncn2-c1ccc2cccc(N3CCC(N)CC3)c2n1 [CP-673,451]",Kd,FLT3 D835H,0.16 nM
same,Kd,FLT3 K663Q,0.62 nM
same,IC50,FLT3 TKD mutation D835Y,3 nM
